{"source": "patent US20250375414A1", "about": "“UROLITHIN COMBINATIONS” (Amazentis SA, priority 2024, published 2025)", "key": {"[1]": {"tested_on": "Interleukin-6 (IL-6) secretion in C2C12 myotubes", "experiment": "IL-6 release from cytomix (CTX)-inflamed C2C12 myotubes (ELISA of culture media)", "format": "cell-based, mouse", "details": "for Impact on the release of IL-6 (significance): FIG. 3", "method": "We first studied what is the lowest non-functional dose of Urolithin A in the context of cytokine-mediated muscle cell inflammation. For this, we exposed C2C12 myotubes to increasing doses of Urolithin A within a range of 1.56 uM to […] for 24 hours, and then induced inflammation for an additional 24 hours by applying to cells a mix of pro-inflammatory cytokines (Cytomix, abbreviated CTX). One set of cells were left untreated, indicated by the first bar (CTX−, UA−). One set of cells were treated with CTX but not Urolithin A (second bar, CTX+, UA−). At the end of the study, we measure the concentration of the proinflammatory biomarker Interleukin 6 (IL-6) released in the cell culture media.\nBased on the literature we used concentrations of ERGO at two low doses—potentially non-functional—i.e. 4 uM and 20 uM. […] As for the UA experiment in FIG. 1, we treated C2C12 with ERGO at these […] doses for 24 hours, followed by treatment with CTX for additional 24 hours.\nFor this combination experiment, C2C12 were treated without CTX, with CTX alone and with CTX plus either UA alone (6.25 uM), ERGO alone (both 20 uM and 100 uM) and UA plus ERGO 20 uM and UA+ERGO 100 uM.\nC2C12 Myoblasts purchased from the American Type Culture Collection (ATCC; ref. CRL-1772) were seeded at 8000 cells per well in a 96 well plate (Greiner) using a DMEM Glutamax 4.5 g D-glucose (Gibco, ref 31966021) supplemented with FBS 10% (PanBiotech, ref P190902), 1% PenStrep (Biowest, Nuaill6, France) and 1% Hepes (Biowest). Cells were then differentiated for 6 days using a differentiation medium (DMEM Glutamax 4.5 g D-glucose (Gibco, ref 31966021), 2% Horse serum (Thermofisher, ref 160501229) 1% PenStrep and 1% Hepes). All our media were sterilized with a 0.45 μm filter unit (VWR). After 4 days of the differentiation cells were treated for 24 h with 1) Urolithin A (UA), Ergothieoneine (ERGO, MedChem Express HY-N1914) or a combination of the two at the indicated doses. Cytokine mix (“cytomix”) was added at day 5 in addition of the previous treatment for another 24 h, cytokines were respectively used at 5 ng (mIFN-γ (Roche ref.11276905001), TNF-α (Peprotech ref. 300-01A) and IL-β (Proteintech ref. 200-011B)). The medium was collected and an ELISA for Interleukin-6 were performed following the instruction provided by the supplier (Proteintech ref. KE10007). Finally, the absorbance at a wavelength of 450 nm was measured using a microplate plate reader (Fluostar Optima, BMG Labtech)."}, "[2]": {"tested_on": "Interleukin-6 (IL-6) secretion in human dermal fibroblasts (nHDF)", "experiment": "IL-6 in supernatant of cytokine mix-treated normal human dermal fibroblasts (nHDF) (ELISA)", "format": "cell-based", "method": "A dose of 0.025 ng/ml of Cytokines mix was applied to induce inflammation, measured by quantifying the levels of the pro-inflammatory cytokine interleukin 6 (IL-6) in the cell culture supernatant. For the experiment, cells were first pre-treated with either i) urolithin A 2.5 uM, ii) Zinc at 100 uM, iii) a combination of urolithin A 2.5 uM and Zinc 100 uM, iv) or DMSO as control for 24 h. Then cells were co-treated with both CTX and either urolithin A or Zinc alone or in combination, as above. After 24 h, IL-6 was measured in the cell supernatant to assess the ability of Urolithin A and Zinc to reduce Cytokines-induced inflammation.\nNormal Human dermal fibroblasts (nHDF) purchased from Promocell (ref. C-12302) were seeded at 6000 cells per well in a 96 well plate (Greiner) using a DMEM Glutamax 1 g D-glucose (Gibco, ref 21885108) supplemented with FBS 10% (PanBiotech, ref P30-3033), 1% PenStrep (Biowest) and 1% Hepes (Biowest). All media were sterilized with a 0.45 μm filter unit (VWR). The day after the seeded cells were treated for 24 h with 1) Urolithin A (UA) resuspended in DMSO, Zinc gluconate (MedChemExpress Ref. HY-W145499) or a combination of the two at the indicated doses.Cytokine mix (“cytomix”) was added in addition of the previous treatment for another 24 h, cytokines were used equally for a total and final concentration of 0.025 ng/ml (mIFN-g (roche ref.11276905001), TNF-α (Peprotech ref. 300-01A) and IL-b (Proteintech ref. 200-011B)). The medium was collected and an ELISA for Interleukin-6 were performed following the instruction provided by the supplier (Proteintech ref. KE10007). Finally, the absorbance at a wavelength of 450 nm was measured using a microplate plate reader (Fluostar Optima, BMG Labtech). IL-6 data were finally normalized over cell number, calculated with a cell viability assay (Promega, ref. G7571)."}, "[3]": {"tested_on": "IL-6 levels in stressed C2C12 cells", "details": "cited from earlier work"}, "[4]": {"tested_on": "IL-6 levels in 3T3-L1 cells", "details": "3T3-L1 cells after stimulation with TNFα; cited from earlier work"}}}
{"molecule": "O=c1oc2cc(O)ccc2c2ccc(O)cc12", "note": "[UA, Urolithin A]", "values": [{"measurement": "First dose at which UA did not exert a significant reduction in IL-6 (sub-functional dose)", "setting": "[1]; C2C12 myotubes, CTX, FIG. 1", "result": 6.25, "unit": "µM"}, {"measurement": "Effect on IL-6 release of CTX inflamed cells", "setting": "[1]; UA 1.56 uM to 50 mM, 24 h, then CTX 24 h, FIG. 1", "result": "dose dependent decrease"}, {"measurement": "Percent change in IL-6 vs CTX alone", "setting": "[1]; UA 6.25 uM, 24 h, then cytomix (CTX) further 24 h, C2C12 myotubes", "result": "−5.2", "unit": "%"}, {"measurement": "Impact on the release of IL-6 (significance)", "setting": "[1]; UA alone 6.25 uM, CTX", "result": "did not significantly impact"}, {"measurement": "% reduction IL-6", "setting": "[2]; CTX vs. CTX + UA 2.5 uM, nHDF", "result": "−25", "unit": "%"}]}
{"molecule": "C[N+](C)(C)[C@@H](Cc1c[nH]c(=S)[nH]1)C(=O)[O-]", "note": "[ERGO, ergothioneine]", "values": [{"measurement": "Percent change in IL-6 vs CTX alone", "setting": "[1]; ERGO 20 uM, 24 h, then CTX further 24 h, C2C12 myotubes", "result": "+1.2%"}, {"measurement": "Percent change in IL-6 vs CTX alone", "setting": "[1]; ERGO 100 uM, 24 h, then CTX further 24 h, C2C12 myotubes", "result": "−28", "unit": "%"}, {"measurement": "Impact on IL6 (significance)", "setting": "[1]; ERGO 100 uM, CTX", "result": "significant reduction"}, {"measurement": "Impact on the release of IL-6 (significance)", "setting": "[1]; ERGO alone 20 uM, CTX", "result": "did not significantly impact"}, {"measurement": "Only dose leading to a significant decrease in CTX-induced IL-6 secretion", "setting": "[1]; ERGO tested at 4 uM, 20 uM and 100 uM, FIG. 2", "result": 100, "unit": "µM"}, {"measurement": "Effect on IL-6 levels", "setting": "[3]", "result": "reduce IL-6 levels"}, {"measurement": "Effect on IL-6 levels", "setting": "[4]", "result": "reduce IL-6 levels"}]}
{"molecule": "Zinc gluconate", "values": [{"measurement": "% reduction IL-6", "setting": "[2]; CTX vs. CTX + Zinc 100 uM, nHDF", "result": "−29.6", "unit": "%"}, {"measurement": "Relative Change (%) Compared to CTX", "setting": "[2]; Zinc 100 uM, CTX 0.025 ng/ml, IL-6 in nHDF supernatant", "result": "−29.57", "unit": "%"}, {"measurement": "Reduction of CTX-mediated increase of IL-6", "setting": "[2]; Zinc 100 uM, nHDF", "result": 29.6, "unit": "%"}]}
